# Data reported in EP2208498B1, “PHARMACEUTICAL COMPOSITION COMBINING VARIOUS VENOTONIC AND VASOPROTECTIVE AGENTS FOR THE TREATMENT OF CHRONIC VENOUS INSUFFICIENCY” (priority 2007, dated 2009).
# Experiments:
# haemorrhoidal crises = conditions: 25 patients 1 500 mg per day calcium dobesilate; 26 patients 3000 mg per day flavonoid fraction of diosmine; cited from earlier work
# [1] = system: patients with chronic venous insufficiency
# Procedure: A randomized, comparative clinical study was carried out wherein 150 patients with chronic venous insufficiency were included.
# All patients were firstly treated with conventional therapy, combining compression with pharmacological treatment.
# A full clinical history with physical examination was prepared for the patients, being assessed with Echo Doppler and CEAP classification, see Table 1.
# [2] = cited from earlier work
# [3] = Final symptomatology data after two months of treatment, n=50 per group, initial 100%
structure (smiles),measurement,setting,value
"O=S(=O)(O)c1cc(O)ccc1O [calcium dobesilate, Calcium dobesilate]",improvement in haemorrhoidal crises (in words),haemorrhoidal crises,significant improvement
same,Itch,"[1]; Final symptomatology data after two months of treatment, n=50 per group, initial 80-88%",0
same,Cramps,[1]; [3],0
same,Heaviness,[1]; [3],0
same,Limb pain,[1]; [3],0
same,Doppler,"[1]; Final symptomatology data after two months of treatment, n=50 per group, initial >9",<9
same,reported side effects such as: head ache and tiredness sensation,"[1]; human, in vivo",14 patients
same,plasma peak,[2]; after oral administration,8 µg/mL
same,time of plasma peak,[2]; after oral administration,around 6 hours
same,Plasma half-life,[2]; in vivo,about 5 hours
same,administered dose removed in feces,[2]; remaining dose,50%
same,administered dose removed in urine,[2]; within the first 24 hours,50%
